Measured values: ChEMBL document CHEMBL1143416, “In vitro susceptibility to posaconazole of 1,903 yeast isolates recovered in France from 2003 to 2006 and tested by the method of the European committee on antimicrobial susceptibility testing” (2007)

Tests used:
Assay type in all cases: functional
[1] = test system: Cryptococcus neoformans; assay: Antimicrobial activity against Cryptococcus neoformans blood isolate
[2] = test system: Cryptococcus neoformans; assay: Antimicrobial activity against Cryptococcus neoformans isolate from superficial infection
[3] = test system: Trichosporon inkin; assay: Antimicrobial activity against Trichosporon inkin isolate
[4] = test system: Magnusiomyces capitatus; assay: Antimicrobial activity against Geotrichum capitatum isolate
[5] = test system: [Candida] palmioleophila; assay: Antimicrobial activity against Candida palmioleophila isolate; conditions: Suzukiozyma palmioleophila
[6] = test system: Yarrowia lipolytica; assay: Antimicrobial activity against Candida lipolytica isolate
[7] = test system: Candida tropicalis; assay: Antimicrobial activity against Candida tropicalis isolate
[8] = test system: Meyerozyma guilliermondii; assay: Antimicrobial activity against Candida guilliermondii blood isolate
[9] = test system: Candida dubliniensis; assay: Antimicrobial activity against Candida dubliniensis isolate
[10] = test system: Clavispora lusitaniae; assay: Antimicrobial activity against Candida lusitaniae isolate from superficial infection
[11] = test system: Debaryomyces hansenii; assay: Antimicrobial activity against Candida famata isolate
[12] = test system: Saccharomyces cerevisiae; assay: Antimicrobial activity against Saccharomyces cerevisiae isolate
[13] = test system: Cryptococcus neoformans; assay: Antimicrobial activity against Cryptococcus neoformans isolate
[14] = test system: Candida parapsilosis; assay: Antimicrobial activity against Candida parapsilosis isolate; conditions: Lodderomyces parapsilosis
[15] = test system: Kodamaea ohmeri; assay: Antimicrobial activity against Pichia ohmeri isolate
[16] = test system: Nakaseomyces glabratus; assay: Antimicrobial activity against Candida glabrata blood isolate
[17] = test system: Nakaseomyces glabratus; assay: Antimicrobial activity against Candida glabrata isolate from superficial infection
[18] = test system: Apiotrichum loubieri; assay: Antimicrobial activity against Trichosporon loubieri isolate
[19] = test system: Pichia kudriavzevii; assay: Antimicrobial activity against Candida krusei isolate
[20] = test system: Cyberlindnera jadinii; assay: Antimicrobial activity against Candida utilis isolate; conditions: Williopsis jadinii
[21] = test system: Meyerozyma guilliermondii; assay: Antimicrobial activity against Candida guilliermondii isolate from superficial infection
[22] = test system: Nakaseomyces glabratus; assay: Antimicrobial activity against Candida glabrata isolate
[23] = test system: Candida albicans; assay: Antimicrobial activity against Candida albicans isolate
[24] = test system: [Candida] inconspicua; assay: Antimicrobial activity against Candida inconspicua isolate; conditions: Pichia inconspicua
[25] = test system: Kluyveromyces marxianus; assay: Antimicrobial activity against Candida kefyr blood isolate
[26] = test system: Clavispora lusitaniae; assay: Antimicrobial activity against Candida lusitaniae isolate
[27] = test system: Candida tropicalis; assay: Antimicrobial activity against Candida tropicalis isolate from superficial infection
[28] = test system: Trichosporon; assay: Antimicrobial activity against Trichosporon isolate
[29] = test system: Candida parapsilosis; assay: Antimicrobial activity against Candida parapsilosis blood isolate; conditions: Lodderomyces parapsilosis
[30] = test system: Kluyveromyces marxianus; assay: Antimicrobial activity against Candida kefyr isolate
[31] = test system: Diutina rugosa; assay: Antimicrobial activity against Candida rugosa isolate
[32] = test system: Candida dubliniensis; assay: Antimicrobial activity against Candida dubliniensis blood isolate
[33] = test system: Candida parapsilosis; assay: Antimicrobial activity against Candida parapsilosis isolate from superficial infection; conditions: Lodderomyces parapsilosis
[34] = test system: [Candida] haemuloni; assay: Antimicrobial activity against Candida haemulonii isolate; conditions: Candidozyma haemuli
[35] = test system: Clavispora lusitaniae; assay: Antimicrobial activity against Candida lusitaniae blood isolate
[36] = test system: Candida africana; assay: Antimicrobial activity against Candida africana isolate
[37] = test system: Trichosporon asahii; assay: Antimicrobial activity against Trichosporon asahii isolate
[38] = test system: Candida tropicalis; assay: Antimicrobial activity against Candida tropicalis blood isolate
[39] = test system: Rhodotorula mucilaginosa; assay: Antimicrobial activity against Rhodotorula mucilaginosa isolate
[40] = test system: Wickerhamomyces anomalus; assay: Antimicrobial activity against Candida pelliculosa isolate; conditions: Hansenula anomala
[41] = test system: Pichia kudriavzevii; assay: Antimicrobial activity against Candida krusei isolate from superficial infection
[42] = test system: Meyerozyma caribbica; assay: Antimicrobial activity against Candida fermentati isolate
[43] = test system: Meyerozyma guilliermondii; assay: Antimicrobial activity against Candida guilliermondii isolate
[44] = test system: Candida albicans; assay: Antimicrobial activity against Candida albicans isolate from superficial infection
[45] = test system: Cutaneotrichosporon mucoides; assay: Antimicrobial activity against Trichosporon mucoides isolate
[46] = test system: Candida dubliniensis; assay: Antimicrobial activity against Candida dubliniensis isolate from superficial infection
[47] = test system: Pichia kudriavzevii; assay: Antimicrobial activity against Candida krusei blood isolate
[48] = test system: Candida albicans; assay: Antimicrobial activity against Candida albicans blood isolate

CC[C@@H]([C@H](C)O)n1ncn(-c2ccc(N3CCN(c4ccc(OC[C@@H]5CO[C@@](Cn6cncn6)(c6ccc(F)cc6F)C5)cc4)CC3)cc2)c1=O [POSACONAZOLE]
4 µg/mL: MIC90 [27]
0.125 µg/mL: MIC50 [1] | MIC50 [2] | MIC50 [5] | MIC50 [6] | MIC50 [7] | MIC90 [9] | MIC50 [11] | MIC50 [13] | MIC50 [14] | MIC50 [20] | MIC90 [23] | MIC50 [24] | MIC50 [25] | MIC50 [27] | MIC50 [29] | MIC50 [30] | MIC90 [32] | MIC50 [33] | MIC50 [38] | MIC90 [48]
0.5 µg/mL: MIC90 [1] | MIC90 [2] | MIC50 [4] | MIC90 [13] | MIC90 [19] | MIC50 [21] | MIC90 [21] | MIC90 [25] | MIC90 [38] | MIC90 [41] | MIC90 [43] | MIC90 [47]
1 µg/mL: MIC90 [8] | MIC50 [16] | MIC50 [17] | MIC50 [22] | MIC50 [39] | MIC90 [42]
0.06 µg/mL: MIC50 [3] | MIC50 [9] | MIC50 [15] | MIC50 [18] | MIC50 [23] | MIC50 [26] | MIC50 [28] | MIC50 [31] | MIC50 [32] | MIC50 [35] | MIC50 [40] | MIC50 [44] | MIC50 [45]
≥ 8 µg/mL: MIC90 [16] | MIC90 [17] | MIC90 [22] | MIC50 [34] | MIC90 [34]
0.03 µg/mL: MIC [10] | MIC50 [12] | MIC50 [48]
0.25 µg/mL: MIC90 [7] | MIC50 [8] | MIC90 [14] | MIC50 [19] | MIC90 [26] | MIC90 [29] | MIC90 [30] | MIC90 [33] | MIC90 [35] | MIC50 [37] | MIC50 [41] | MIC50 [42] | MIC50 [43] | MIC90 [44] | MIC50 [47]
≤ 0.015 µg/mL: MIC50 [36] | MIC [46]

OC(Cn1cncn1)(Cn1cncn1)c1ccc(F)cc1F [FLUCONAZOLE]
0.5 µg/mL: MIC50 [3]
32 µg/mL: MIC50 [34]
16 µg/mL: MIC50 [24]
2 µg/mL: MIC50 [6] | MIC50 [18] | MIC50 [28] | MIC50 [37] | MIC50 [40] | MIC50 [45]
0.25 µg/mL: MIC50 [12] | MIC50 [36]
0.125 µg/mL: MIC50 [11]
4 µg/mL: MIC50 [4]
1 µg/mL: MIC50 [20] | MIC50 [31]
8 µg/mL: MIC50 [5] | MIC50 [15] | MIC50 [42]
≥ 64 µg/mL: MIC90 [34] | MIC50 [39] | MIC90 [42]

C[C@@H](c1ncncc1F)[C@](O)(Cn1cncn1)c1ccc(F)cc1F [VORICONAZOLE]
0.03 µg/mL: MIC50 [15] | MIC50 [18] | MIC50 [20] | MIC50 [28] | MIC50 [37] | MIC50 [40] | MIC50 [45]
0.06 µg/mL: MIC50 [5] | MIC50 [24]
≥ 8 µg/mL: MIC50 [34] | MIC90 [34]
0.125 µg/mL: MIC50 [42]
2 µg/mL: MIC50 [39]
1 µg/mL: MIC90 [42]
≤ 0.015 µg/mL: MIC50 [3] | MIC50 [4] | MIC50 [6] | MIC50 [11] | MIC50 [12] | MIC50 [31] | MIC50 [36]
